Results published in ChEMBL document CHEMBL1201862, “PubChem BioAssay data set” (2004).
Active and inactive are the calls of the source.

What was measured:
[1] = inhibitors of SNCA 5'UTR-driven reporter translation, confirmation, H4 neuroglioma cells, luminescence (AID 1988); format: functional, cell-based
[2] = inhibitors of firefly luciferase expression or activity, dose response, H4 neuroglioma cells, luminescence (AID 1990); format: functional, cell-based
[3] = off-target signal loss in HeLa-CEM21 co-culture – HeLa F-luc CTL cells, cherry-picked, counter-screen for HIV-1 Env fusion inhibitor project, dose response (AID 652040); format: functional, cell-based;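 further: potency for signal decrease marking cytotoxic or nonspecific inhibition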
[4] = cytotoxicity in HEK-293T NF-kB-Luc cells, dose response, cytotoxicity control for B/T-cell NF-kB inhibitor project, cell-based, uHTS hits (AID 489019); format: functional;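 further: IC50 reflects cytotoxicity as loss of cell viability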
[5] = inhibitors of clade B AD8 Env fusion, dose response, cell-based, cherry-pick (AID 652062); format: functional;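 further: luciferase signal from cell-cell fusion driven by HIV-1 clade B AD8 Env; potency is for inhibitors of fusion seen as a drop in luminescence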
Jurkat = assay: antigen receptor-induced NF-kB inhibitors, dose response, Jurkat, luciferase reporter, luminescence, B- and T-cell (AID 489004); format: functional, cell-based; details: Homo sapiens;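 further: NF-kB luciferase reporter Jurkat cells stimulated with PMA plus ionomycin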
[6] = CEM21 lymphoblast cell cytotoxicity, dose response, cytotoxicity control for viral fusion inhibitor project, CellTiter-Glo luminescence, cherry-picked (AID 652042); format: functional, cell-based;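 further: potency for signal decrease meaning cytotoxicity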
[7] = Luminescence Cell-Based Dose Response HTS to Identify Inhibitors of 5'UTR Stem-Loop Driven Prion Protein mRNA Translation in H4 Neuroglioblastoma Cells. [Related pubchem assays: 1827 (Project Summary), 1813 (Primary HTS)]; format: functional
[8] = target: Beta-adrenergic receptor kinase 1 (Homo sapiens, UniProt P25098); assay: GRK2 inhibitors displacing RNA aptamer, dose response, biochemical, flow cytometry beads, FAM-aptamer, powder set 1 (AID 588720)
Beta-adrenergic receptor kinase 1, sequence (P25098 whole entry): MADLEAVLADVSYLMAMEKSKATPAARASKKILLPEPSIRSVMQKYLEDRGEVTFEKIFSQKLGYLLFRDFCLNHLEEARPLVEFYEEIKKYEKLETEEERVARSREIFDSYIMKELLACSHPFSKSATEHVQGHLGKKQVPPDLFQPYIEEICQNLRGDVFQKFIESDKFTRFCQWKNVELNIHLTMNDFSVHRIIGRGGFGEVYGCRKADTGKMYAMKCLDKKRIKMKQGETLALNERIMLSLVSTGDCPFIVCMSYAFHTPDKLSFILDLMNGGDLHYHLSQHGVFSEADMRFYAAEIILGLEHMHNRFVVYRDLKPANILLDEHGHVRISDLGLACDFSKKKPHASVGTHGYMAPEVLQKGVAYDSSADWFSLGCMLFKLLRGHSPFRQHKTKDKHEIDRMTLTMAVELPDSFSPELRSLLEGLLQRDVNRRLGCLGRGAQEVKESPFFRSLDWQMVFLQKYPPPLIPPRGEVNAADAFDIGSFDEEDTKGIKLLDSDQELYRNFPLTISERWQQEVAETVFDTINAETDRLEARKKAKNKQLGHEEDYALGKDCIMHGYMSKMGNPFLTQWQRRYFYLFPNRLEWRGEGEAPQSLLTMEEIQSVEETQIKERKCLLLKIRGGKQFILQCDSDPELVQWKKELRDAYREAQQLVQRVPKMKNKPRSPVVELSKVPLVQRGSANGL

[9] = target: UDP-galactopyranose mutase (Mycobacterium tuberculosis, UniProt P9WIQ1); assay: Inhibitors of Mycobacterium tuberculosis UDP-galactopyranose mutase (UGM) enzyme Measured in Biochemical System Using Plate Reader - 2105-02_Inhibitor_Dose_CherryPick_Activity. [Related pubchem assays (depositor defined):AID504439]
UDP-galactopyranose mutase, sequence (P9WIQ1 whole entry): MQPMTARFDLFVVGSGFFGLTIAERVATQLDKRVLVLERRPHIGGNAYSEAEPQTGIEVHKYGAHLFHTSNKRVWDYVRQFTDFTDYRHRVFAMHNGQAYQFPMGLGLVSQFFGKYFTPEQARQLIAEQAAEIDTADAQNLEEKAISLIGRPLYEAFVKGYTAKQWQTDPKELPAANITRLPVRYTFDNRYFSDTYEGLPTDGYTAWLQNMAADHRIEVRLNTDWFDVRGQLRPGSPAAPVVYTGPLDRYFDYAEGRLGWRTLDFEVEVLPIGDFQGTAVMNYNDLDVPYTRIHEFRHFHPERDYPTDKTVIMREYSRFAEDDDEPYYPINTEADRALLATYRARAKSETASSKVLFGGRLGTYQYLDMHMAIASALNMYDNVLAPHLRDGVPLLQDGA

HEK293 [10] = assay: HEK cell cytotoxicity by LDH release, dose response, cytotoxicity control for IDE activator project, fluorescence, HEK cells (AID 588440); format: functional, cell-based; details: Homo sapiens;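 further: cytotoxicity by LDH release measuring loss of membrane integrity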
ORF 73 = ORF 73 (Human herpesvirus 8, UniProt O40947); assay: inhibitors of C-LANA binding to LBS DNA, dose response, biochemical, fluorescence polarization, cherry-picked samples (AID 504725); design: species or system Human gammaherpesvirus 8;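 further: fluorescence polarization of a labeled DNA duplex reporting LANA DNA binding; potency is for inhibitors that block LANA binding to the DNA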
ORF 73, sequence (O40947 whole entry): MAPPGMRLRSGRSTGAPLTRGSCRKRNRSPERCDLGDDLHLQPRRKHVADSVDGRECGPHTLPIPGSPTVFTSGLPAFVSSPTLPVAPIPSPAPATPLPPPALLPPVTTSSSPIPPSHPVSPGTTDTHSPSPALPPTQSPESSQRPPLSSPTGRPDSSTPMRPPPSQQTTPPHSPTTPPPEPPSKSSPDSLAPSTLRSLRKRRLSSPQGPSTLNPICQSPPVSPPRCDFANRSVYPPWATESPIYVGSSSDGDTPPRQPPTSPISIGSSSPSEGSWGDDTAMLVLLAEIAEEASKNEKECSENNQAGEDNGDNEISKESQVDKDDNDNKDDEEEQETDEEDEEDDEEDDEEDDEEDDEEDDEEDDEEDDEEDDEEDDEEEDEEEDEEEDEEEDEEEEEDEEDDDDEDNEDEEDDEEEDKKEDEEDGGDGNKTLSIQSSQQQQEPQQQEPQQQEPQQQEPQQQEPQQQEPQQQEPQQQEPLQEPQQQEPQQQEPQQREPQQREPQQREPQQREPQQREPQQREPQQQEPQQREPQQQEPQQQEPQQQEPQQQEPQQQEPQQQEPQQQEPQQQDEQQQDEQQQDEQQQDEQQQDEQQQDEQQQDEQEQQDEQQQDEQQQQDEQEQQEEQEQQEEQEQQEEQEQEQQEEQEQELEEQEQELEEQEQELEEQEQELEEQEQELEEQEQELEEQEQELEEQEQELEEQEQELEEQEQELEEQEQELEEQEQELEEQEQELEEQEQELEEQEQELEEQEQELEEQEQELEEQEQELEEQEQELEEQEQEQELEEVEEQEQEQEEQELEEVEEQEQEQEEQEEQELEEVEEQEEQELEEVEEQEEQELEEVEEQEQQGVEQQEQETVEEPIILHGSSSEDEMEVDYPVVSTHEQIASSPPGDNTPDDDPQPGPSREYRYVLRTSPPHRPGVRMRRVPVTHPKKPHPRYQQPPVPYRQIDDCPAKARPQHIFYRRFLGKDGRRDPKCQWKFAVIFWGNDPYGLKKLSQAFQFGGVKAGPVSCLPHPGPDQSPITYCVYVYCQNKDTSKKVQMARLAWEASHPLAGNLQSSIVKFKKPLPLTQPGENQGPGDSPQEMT

Insulin-degrading enzyme [11] = target: T1, Insulin-degrading enzyme (Homo sapiens, UniProt P14735); assay: activators of endogenous IDE in HEK cells, dose response, cell-based, fluorescence polarization (AID 588439); format: functional
T1 sequence (P14735 whole entry): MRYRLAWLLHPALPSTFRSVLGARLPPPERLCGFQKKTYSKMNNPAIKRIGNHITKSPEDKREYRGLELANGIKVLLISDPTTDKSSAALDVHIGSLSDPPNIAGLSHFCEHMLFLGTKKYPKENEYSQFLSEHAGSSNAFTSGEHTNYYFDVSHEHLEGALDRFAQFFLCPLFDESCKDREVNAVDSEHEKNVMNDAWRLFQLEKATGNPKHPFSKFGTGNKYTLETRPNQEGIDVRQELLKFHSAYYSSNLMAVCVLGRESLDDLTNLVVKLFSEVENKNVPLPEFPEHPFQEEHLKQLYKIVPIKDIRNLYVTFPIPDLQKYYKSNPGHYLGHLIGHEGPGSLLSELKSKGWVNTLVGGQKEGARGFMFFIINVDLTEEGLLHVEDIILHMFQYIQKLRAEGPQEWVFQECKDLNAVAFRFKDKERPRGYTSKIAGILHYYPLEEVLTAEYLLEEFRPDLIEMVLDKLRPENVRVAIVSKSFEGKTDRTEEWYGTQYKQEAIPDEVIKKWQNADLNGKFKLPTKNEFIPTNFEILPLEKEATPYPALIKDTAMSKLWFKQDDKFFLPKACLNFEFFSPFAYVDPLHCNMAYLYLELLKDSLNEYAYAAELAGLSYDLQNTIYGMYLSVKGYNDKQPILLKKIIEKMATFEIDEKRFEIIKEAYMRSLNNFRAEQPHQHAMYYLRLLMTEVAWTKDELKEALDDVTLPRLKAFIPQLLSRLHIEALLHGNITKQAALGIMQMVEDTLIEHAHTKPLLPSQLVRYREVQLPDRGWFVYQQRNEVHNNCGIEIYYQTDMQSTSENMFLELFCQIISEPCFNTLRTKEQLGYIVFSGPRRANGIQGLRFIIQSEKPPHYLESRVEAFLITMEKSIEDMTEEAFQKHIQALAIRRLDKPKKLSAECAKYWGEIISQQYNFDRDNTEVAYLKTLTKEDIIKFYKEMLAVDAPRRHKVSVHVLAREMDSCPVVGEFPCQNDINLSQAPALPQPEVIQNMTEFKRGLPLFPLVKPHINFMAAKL

Insulin-degrading enzyme [12] = target: T1, Insulin-degrading enzyme; assay: activators of recombinant IDE enzyme, dose response, counter-screen for IDE activator project, biochemical, fluorescence polarization (AID 588681)
HEK293 [13] = assay: optical interference in Abeta FP readout, dose response, artefact control for IDE activator project, biochemical, fluorescence polarization (AID 588442); format: functional, cell-based; details: Homo sapiens
[14] = target: T2, Apoptotic protease-activating factor 1 (Homo sapiens, UniProt O14727); format: functional
T2 sequence (O14727 whole entry): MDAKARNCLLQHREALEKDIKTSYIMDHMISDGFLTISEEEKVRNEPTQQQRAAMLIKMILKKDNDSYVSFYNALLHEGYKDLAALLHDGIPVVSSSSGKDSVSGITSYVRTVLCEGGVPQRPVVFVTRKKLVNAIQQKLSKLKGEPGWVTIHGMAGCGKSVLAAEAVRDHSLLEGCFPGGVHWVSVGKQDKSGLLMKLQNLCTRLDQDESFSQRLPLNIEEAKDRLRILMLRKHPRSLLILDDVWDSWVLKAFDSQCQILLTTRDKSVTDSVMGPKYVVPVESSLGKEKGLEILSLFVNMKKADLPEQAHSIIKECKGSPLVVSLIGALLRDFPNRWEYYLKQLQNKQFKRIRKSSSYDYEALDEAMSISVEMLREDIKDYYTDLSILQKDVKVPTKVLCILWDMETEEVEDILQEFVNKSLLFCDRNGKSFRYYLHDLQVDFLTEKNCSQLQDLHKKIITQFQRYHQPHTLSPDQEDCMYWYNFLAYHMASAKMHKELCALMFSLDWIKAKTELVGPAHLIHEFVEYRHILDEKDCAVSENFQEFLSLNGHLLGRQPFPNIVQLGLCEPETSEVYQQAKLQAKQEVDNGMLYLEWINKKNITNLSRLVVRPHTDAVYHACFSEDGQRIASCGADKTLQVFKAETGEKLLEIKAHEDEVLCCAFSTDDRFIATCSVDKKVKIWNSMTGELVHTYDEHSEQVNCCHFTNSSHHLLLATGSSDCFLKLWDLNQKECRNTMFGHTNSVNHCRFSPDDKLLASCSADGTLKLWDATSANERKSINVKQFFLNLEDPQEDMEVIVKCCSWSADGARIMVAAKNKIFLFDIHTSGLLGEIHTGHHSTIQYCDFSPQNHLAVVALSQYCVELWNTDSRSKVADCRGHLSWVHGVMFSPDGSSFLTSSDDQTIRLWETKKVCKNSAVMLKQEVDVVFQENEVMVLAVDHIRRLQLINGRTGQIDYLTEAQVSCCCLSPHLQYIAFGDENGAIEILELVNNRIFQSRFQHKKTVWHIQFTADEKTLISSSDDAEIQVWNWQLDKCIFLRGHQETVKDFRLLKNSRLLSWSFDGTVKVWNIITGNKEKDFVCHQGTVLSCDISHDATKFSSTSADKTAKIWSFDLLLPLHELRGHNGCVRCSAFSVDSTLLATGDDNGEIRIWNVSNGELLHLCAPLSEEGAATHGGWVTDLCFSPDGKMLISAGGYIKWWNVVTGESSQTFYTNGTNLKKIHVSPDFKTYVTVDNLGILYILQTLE

Keap1/Nrf2 = Keap1/Nrf2 (Homo sapiens, UniProt Q14145); assay: Keap1-Nrf2 protein-protein interaction inhibitors, dose response, biochemical, fluorescence polarization, cherry-picked samples (AID 588683)
Keap1/Nrf2, sequence (Q16236 whole entry): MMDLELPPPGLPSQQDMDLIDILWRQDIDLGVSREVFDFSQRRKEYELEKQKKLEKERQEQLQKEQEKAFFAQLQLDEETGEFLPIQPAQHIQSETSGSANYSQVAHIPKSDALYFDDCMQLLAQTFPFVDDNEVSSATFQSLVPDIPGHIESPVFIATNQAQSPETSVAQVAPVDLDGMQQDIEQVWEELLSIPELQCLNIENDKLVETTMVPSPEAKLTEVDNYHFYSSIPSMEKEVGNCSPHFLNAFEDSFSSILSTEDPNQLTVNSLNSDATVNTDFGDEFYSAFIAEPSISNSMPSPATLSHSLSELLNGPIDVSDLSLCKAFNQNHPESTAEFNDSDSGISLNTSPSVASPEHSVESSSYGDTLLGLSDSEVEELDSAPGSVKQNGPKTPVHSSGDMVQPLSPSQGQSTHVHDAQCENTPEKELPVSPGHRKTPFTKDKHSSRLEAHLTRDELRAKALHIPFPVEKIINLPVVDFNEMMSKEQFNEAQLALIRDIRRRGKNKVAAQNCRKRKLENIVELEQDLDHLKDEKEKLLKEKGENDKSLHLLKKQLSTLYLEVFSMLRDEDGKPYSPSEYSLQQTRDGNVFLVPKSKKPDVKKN
Keap1/Nrf2, sequence (Q14145 whole entry): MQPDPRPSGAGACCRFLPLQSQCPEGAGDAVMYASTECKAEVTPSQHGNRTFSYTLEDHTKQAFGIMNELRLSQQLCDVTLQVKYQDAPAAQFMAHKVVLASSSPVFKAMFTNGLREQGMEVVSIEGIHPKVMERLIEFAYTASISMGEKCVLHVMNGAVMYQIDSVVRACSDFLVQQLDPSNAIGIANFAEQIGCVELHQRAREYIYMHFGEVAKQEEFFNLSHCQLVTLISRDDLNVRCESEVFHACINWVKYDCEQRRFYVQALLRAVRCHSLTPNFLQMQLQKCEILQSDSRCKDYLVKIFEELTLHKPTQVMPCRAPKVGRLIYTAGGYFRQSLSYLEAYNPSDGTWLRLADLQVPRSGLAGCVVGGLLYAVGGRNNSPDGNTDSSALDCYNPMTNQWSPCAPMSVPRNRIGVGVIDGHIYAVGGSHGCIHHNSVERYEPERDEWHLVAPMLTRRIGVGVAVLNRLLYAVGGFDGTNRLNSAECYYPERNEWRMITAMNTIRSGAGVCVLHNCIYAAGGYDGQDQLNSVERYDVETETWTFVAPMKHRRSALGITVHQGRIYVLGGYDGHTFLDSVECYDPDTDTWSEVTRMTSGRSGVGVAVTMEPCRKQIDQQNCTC

[15] = target: Dual specificity tyrosine-phosphorylation-regulated kinase 1A (Rattus norvegicus, UniProt Q63470); format: biochemical, Homo sapiens
CHO = assay: cytotoxicity in TLR9-MyD88 CHO cells, dose response, cytotoxicity control for TLR9-MyD88 binding inhibitor project, cell-based, luminescence (AID 588339); format: functional, hamster; details: Cricetulus griseus;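 further: CHO cells stably coexpressing TLR9 and MyD88 fusions from primary screen; compound exposure lasted 48 hours before viability readout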
Beta Lactamase = Beta Lactamase (Pseudomonas aeruginosa, UniProt Q932Y6); assay: beta-lactamase reporter inhibitor potency, dose response, artefact control for TLR9-MyD88 binding inhibitor project, BLA reporter cells, FRET fluorescence (AID 588341); format: cell-based;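 further: cell based assay in CHO-K1 cells stably expressing beta-lactamase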
Beta Lactamase, sequence (Q932Y6 whole entry): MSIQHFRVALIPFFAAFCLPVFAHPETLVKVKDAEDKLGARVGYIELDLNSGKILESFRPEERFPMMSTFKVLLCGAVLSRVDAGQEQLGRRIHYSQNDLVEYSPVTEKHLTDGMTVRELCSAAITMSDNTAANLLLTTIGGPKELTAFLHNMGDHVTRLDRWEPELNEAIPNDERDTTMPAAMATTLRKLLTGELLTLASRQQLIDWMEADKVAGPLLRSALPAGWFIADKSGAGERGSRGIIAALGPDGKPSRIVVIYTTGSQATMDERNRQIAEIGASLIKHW

Cytochrome P450 2D6 = Cytochrome P450 2D6 (Homo sapiens, UniProt P10635);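 further: CYP2D6 member of a cytochrome P450 panel assay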
Cytochrome P450 2D6, sequence (P10635 whole entry): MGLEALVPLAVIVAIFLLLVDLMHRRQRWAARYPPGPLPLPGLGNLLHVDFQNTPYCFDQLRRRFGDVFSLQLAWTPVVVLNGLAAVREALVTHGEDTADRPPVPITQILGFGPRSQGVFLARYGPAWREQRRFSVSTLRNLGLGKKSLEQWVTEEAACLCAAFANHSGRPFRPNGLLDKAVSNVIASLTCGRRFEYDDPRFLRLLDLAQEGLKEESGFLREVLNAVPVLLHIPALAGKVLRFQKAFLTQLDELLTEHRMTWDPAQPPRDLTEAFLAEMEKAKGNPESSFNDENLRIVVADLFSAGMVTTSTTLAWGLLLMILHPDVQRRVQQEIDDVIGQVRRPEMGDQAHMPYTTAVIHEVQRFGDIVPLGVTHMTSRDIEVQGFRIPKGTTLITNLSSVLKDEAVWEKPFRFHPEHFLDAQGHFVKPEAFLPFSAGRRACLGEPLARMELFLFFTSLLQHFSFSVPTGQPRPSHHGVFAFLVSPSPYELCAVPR

Cytochrome P450 3A4 = Cytochrome P450 3A4 (Homo sapiens, UniProt P08684);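 further: CYP3A4 tested as one member of a cytochrome P450 panel screen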
Cytochrome P450 3A4, sequence (P08684 whole entry): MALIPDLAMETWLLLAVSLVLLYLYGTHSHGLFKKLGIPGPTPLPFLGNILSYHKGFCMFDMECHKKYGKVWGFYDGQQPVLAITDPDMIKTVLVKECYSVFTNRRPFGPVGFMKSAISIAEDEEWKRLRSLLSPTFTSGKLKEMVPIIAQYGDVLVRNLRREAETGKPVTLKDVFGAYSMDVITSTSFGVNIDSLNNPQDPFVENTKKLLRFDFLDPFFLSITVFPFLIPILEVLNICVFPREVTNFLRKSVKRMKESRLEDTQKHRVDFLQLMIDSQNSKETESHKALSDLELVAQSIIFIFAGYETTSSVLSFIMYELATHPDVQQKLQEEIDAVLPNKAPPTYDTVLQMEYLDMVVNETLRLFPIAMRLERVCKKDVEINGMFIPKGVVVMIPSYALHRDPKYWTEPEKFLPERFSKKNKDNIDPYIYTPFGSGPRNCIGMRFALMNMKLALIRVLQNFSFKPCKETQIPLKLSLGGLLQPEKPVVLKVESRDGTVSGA

[16] = target: T3, Heat shock factor protein 1 (Mus musculus, UniProt P38532); assay: inhibition of MG132-induced HSE-luciferase signal, confirmation, cell-based, NIH3T3, luminescence, dose retest (AID 2382); format: functional;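 further: NIH3T3 fibroblasts with HSF1-driven luciferase reporter stressed by proteasome inhibitor MG132; luminescence from HSF1-driven luciferase expression after 8 hours of MG132 stress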
T3 sequence (P38532 whole entry): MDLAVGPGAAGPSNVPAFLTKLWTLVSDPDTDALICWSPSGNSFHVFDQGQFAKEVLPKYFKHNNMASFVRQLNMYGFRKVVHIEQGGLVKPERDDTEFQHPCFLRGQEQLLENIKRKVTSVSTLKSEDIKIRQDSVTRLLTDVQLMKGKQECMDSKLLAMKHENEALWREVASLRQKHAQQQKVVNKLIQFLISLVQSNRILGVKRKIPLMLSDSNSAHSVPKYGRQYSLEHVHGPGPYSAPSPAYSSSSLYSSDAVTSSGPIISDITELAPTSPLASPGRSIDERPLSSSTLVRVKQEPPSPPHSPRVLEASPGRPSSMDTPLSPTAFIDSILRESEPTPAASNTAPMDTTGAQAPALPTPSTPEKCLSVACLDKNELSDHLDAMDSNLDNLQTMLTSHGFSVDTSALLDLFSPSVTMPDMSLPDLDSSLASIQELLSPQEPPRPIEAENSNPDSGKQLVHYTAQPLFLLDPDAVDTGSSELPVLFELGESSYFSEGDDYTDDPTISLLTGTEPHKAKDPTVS

Cytochrome P450 2C19 = Cytochrome P450 2C19 (Homo sapiens, UniProt P33261); assay: Cytochrome panel assay with activity outcomes. Panel member name: p450-cyp2c19 Compounds with AC50 equal or less than 10 uM are considered active; format: functional; details: read-out: AC50
Candida albicans = assay: growth inhibition of resistant C. albicans, dose response, CaCi-8, fluconazole, Alamar Blue, dry powder (AID 488807); format: functional, organism-based

CCOc1ccc(-c2cc(CCCC(=O)Nc3cccc(OC)c3)no2)cc1
EC50 [1]: 3.89 µM (active)
EC50 [2]: 7.56 µM (active)
AC50 [3]: 55.4 µM (active)
IC50 [4]: > 80 µM (inactive)
AC50 [5]: 2.45 µM (active)
IC50 (Jurkat): 9.95 µM (active)
AC50 [6]: 58.9 µM (active)
EC50 [7]: 0.24 µM (active)

COc1ccc(CCNC(=O)CCS(=O)(=O)c2ccc(Br)cc2)cc1OC
EC50 [8]: 14.9 µM (active)

CCOc1ccc2noc3c2c1C(=O)c1ccccc1-3
AC50 [9]: 0.356 µM (active)
IC50 (HEK293 [10]): > 89.1 µM (inactive)
AC50 (ORF 73): 0.572 µM (active)
EC50 (Insulin-degrading enzyme [11]): > 54.7 µM (inactive)
EC50 (Insulin-degrading enzyme [12]): > 54.7 µM (inactive)
EC50 (HEK293 [13]): 4.95 µM (active)
IC50 [14]: 87.4 µM (active)

Oc1ccc2nnc3c(Br)cnn3c2c1
AC50 (Keap1/Nrf2): 16.1 µM (active)
AC50 (ORF 73): 6.64 µM (active)
AC50 [15]: 1.11 µM (active)
IC50 (CHO): > 49.8 µM (inactive)
IC50 (Beta Lactamase): 6.63 µM (active)

CCOC(=O)Cc1csc(NC(=O)c2sc3nc4ccc(CC)cc4cc3c2N)n1
AC50 (Cytochrome P450 2D6): inconclusive
AC50 (Cytochrome P450 3A4): 35.5 µM (inconclusive)
EC50 [16]: > 195 µM (not active)
AC50 (Cytochrome P450 2C19): 0.2 µM (inconclusive)

O=C(O)c1c2ccccc2nn1Cc1ccc(Cl)cc1
AC50 (Candida albicans): 149 µM (active)
